Active and inactive are the calls of the source. No cut-off for these calls is given here.
Experiments:
[1] = tested on: Detroit 551; experiment: Cytotoxicity against human Detroit 551 cells; assay type: cell-based
[2] = Cytotoxicity against human Hep3B cells; assay type: functional, cell-based, Hep 3B2
[3] = tested on: HL-60; experiment: Cytotoxicity against human HL60 cells; assay type: functional, cell-based
[4] = Cytotoxicity against human H460 cells; assay type: functional, cell-based; details: NCI-H460
[5] = Antitumor activity against human Hep3B cells xenografted in nude mouse assessed as inhibition of tumor growth at 20 mg/kg, ip qd administered for 5 days per week for 4 consecutive weeks; assay type: functional, Hep 3B2; details: 120 h, route intraperitoneal, read-out: TGI
[6] = tested on: Mus musculus; experiment: Toxicity in human Hep3B cells xenografted nude mouse assessed as mouse body weight changes at 10 mg/kg, ip qd administered for 5 days per week for 4 consecutive weeks; assay type: organism-based, Hep 3B2; set-up: dose 10 mg/kg, route intraperitoneal; details: in vivo, 120 h
[7] = tested on: Hep 3B2; experiment: Antitumor activity against human Hep3B cells xenografted in nude mouse assessed as inhibition of tumor growth at 10 mg/kg, ip qd administered for 5 days per week for 4 consecutive weeks; assay type: functional, organism-based; set-up: dose 10 mg/kg
[8] = tested on: Mus musculus; experiment: Toxicity in human Hep3B cells xenografted nude mouse assessed as mouse body weight changes at 20 mg/kg, ip qd administered for 5 days per week for 4 consecutive weeks; assay type: organism-based, Hep 3B2; set-up: dose 20 mg/kg, route intraperitoneal; details: in vivo, 120 h
[9] = Cytotoxicity against human NCI60 cells; assay type: functional

CCNc1cccc(-c2cc(=O)c3cc(N4CCCC4)ccc3[nH]2)c1
IC50 [1]: > 10 µM
IC50 [2]: 20 nM
IC50 [3]: 5 nM
IC50 [4]: 20 nM

CNc1cccc(-c2cc(=O)c3cc(N4CCCC4)ccc3[nH]2)c1
IC50 [1]: > 10 µM
IC50 [2]: 21 nM
IC50 [3]: 6 nM
inhibition in vivo at 20 mg/kg [5]: 70%
Activity [6]: Non-toxic
TGI [7]: Active
IC50 [4]: 35 nM
Activity [8]: Non-toxic

COc1cccc(-c2cc(O)c3cc(N4CCCC4)ccc3n2)c1
GI50 [9]: 1.91 nM

CN(C)c1cccc(-c2cc(=O)c3cc(N4CCCC4)ccc3[nH]2)c1
IC50 [1]: > 1 µM
IC50 [2]: 15 nM
IC50 [3]: 5 nM
IC50 [4]: 13 nM

Reference: ChEMBL document CHEMBL2311379, “Design and synthesis of 2-(3-alkylaminophenyl)-6-(pyrrolidin-1-yl)quinolin-4-ones as potent antitumor agents” (Bioorg Med Chem Lett, 2013)
